In patent publication US5100907A, “Hydantoin esters” (Lonza, Inc., priority 1990, dated 1992):

Columns and labels:
[1] = Emulsion stability tests; type: physicochemical
Procedure: Emulsion stability tests were performed on the esters (I), and for comparison on the precursor esters (Ia), to determine the extent to which each stabilized a standardized solution of water and an oil, using a common procedure consisting of homogenizing a mixture containing the test ester (2%), myristyl propionate (7%), and water (91%). While two emulsifiers are normally used to prepare a cosmetic formulation, e.g. one with a high HLB and the other with a low HLB, the test method herein using only one emulsifier, i.e. the test ester, is fully indicative of the emulsifying attributes of these esters.
The tests were performed with emulsions (500 g), prepared by combining the test ester (10.0 g), myristyl propionate (35 g), and distilled water (455 g) in a container and homogenizing the contents for one minute, via a Kika-Werk Ultra-Turrax S D-45 homogenizer. The emulsions were poured into a one pound flint jar, capped, and periodically examined over a 55 day period.

[2] = system: Escherichia coli; test: Antimicrobial study against Escherichia coli (gram-negative bacteria); type: cell-based; conditions: methylolated C8/10 10,800 ppm, methylolated lauric 11,400 ppm, DMDMH 3,000 ppm, others 14,700 ppm
Procedure: The antimicrobial properties of typical esters (I) and (Ia) were tested by minimum inhibitory concentration (MIC) tests, along with certain known substances, against […] strains of organisms: a mold, Aspergillus niger; a gram-positive bacteria, Staphylococcus aureus; and two gram-negative bacteria, Escherichia coli and Pseudomonas aeruginosa. […] These tests were used to determine any effect on biocidal activity of the varying chain length of the ester.
The known substances, on which identical tests were also performed, included the biocide, dimethyloldimethylhydantoin or DMDMH (iv), and a series of three surfactants, i.e., the three common emulsifiers, sodium lauryl sulfate (SLS); ethylene glycol distearate (EGDS), in the form of the commercial product PEGOSPERSE 50 DS (Lonza Inc.); and polyoxyethylene 20 sorbitan monoleate (POE 20 SMO), in the form of the commercial product GLYCOSPERSE 0 20 (Lonza Inc.).
The tests entailed contaminating a preexisting micro-colony with a known quantity (ppm, concentration) of test material. Each colony was then examined periodically over a one week period. […] A test was deemed non-efficacious when there was no decrease in colony size. In an effort to avoid any possible solvent effect, the micro-study was conducted in a totally aqueous solvent system without use of any other solvent.

[3] = system: Staphylococcus species b; test: Preservative challenge test against Staphylococcus species b; type: cell-based; conditions: end of 14 day period
Procedure: (§1) Microbiological challenge tests were also conducted with the lauric and oleic esters (I), representing molecules having C12 and C18 aliphatic fatty acid chain length moieties, respectively.
(§2) These preservative challenge tests were used to determine the biocidal performance of these two esters (I) in aqueous solution and dispersion formulations inoculated with a given one of two test organisms, previously isolated from a contaminated calcium carbonate (CaCO3) dispersion, i.e. gram-positive bacteria, designated Staphylococcus species a and Staphylococcus species b, as compared to three known biocides or preservatives, designated as DANTOGARD (trademark), Tektamer 38 (1,2-dibromo-2,4-dicyanobutane) and Nuodex PMA-18.
(§3) The solution formulation was represented by the inclusion of the test sample as preservative system in deionized water, and the dispersion formulation was represented by the inclusion of the test sample as preservative system in a CaCO3 aqueous dispersion (identified as Hydrocarb 60), the latter typifying a dispersed pigment medium, e.g. as used in a paint or other industrial dispersion or slurry. The antimicrobial activity of the test samples was evaluated at individually selective concentrations.
(§4) All these liquid samples were stored at room temperature until the start of the tests. The test organisms were maintained or nutrient agar at 4° C. and subcultured in nutrient broth (Difco), and a 24 hour culture incubated at 35° C. was used for the testing over a challenge test time period of 14 days.
(§5) The test formulations were prepared per a standardized procedure, by placing 20 ml aliquots of the stored sample into sterile test tubes, and then adding 0.1 ml of a standardized 10^6 suspension of a 24 hour culture in nutrient broth. Plate counts were taken immediately to determine the initial level of the microbial population, and the containers were incubated at 20°-25° C. Plate counts were retaken at 1, 3, 7 and 14 days, with the final reductions being calculated from the 14 days results.

[4] = Surface tension tests (cmc, Gibbs' Free Energy of Micellation); type: physicochemical
Procedure: Surface tension tests were conducted as to the relationship between the fatty acid aliphatic chain length, i.e. number of carbon atoms, in the esters (I), and their performance as surfactants. The length of the hydrophobic chain of a molecule is considered the major contributing factor to the critical micelle concentration (cmc) value of a surfactant. This value is obtained from surface tension measurement data. The lower the cmc, the more readily the material will form micelles.
The Gibbs' Free Energy of Micellation (ΔG°cmc) and the ΔG°cmc per --CH2 -- can be determined if the cmc is known.
The ΔG°cmc is a calculated value obtained by Equation 1.
ΔG°cmc =2.303RT(log cmc-log[water]) (Eq. 1)
The ΔG°cmc per --CH2 -- value is obtained from the slope of the straight line curve formed from a plot of ΔG°cmc versus the number of carbon atoms in the lipophilic chain.
The cmc values were based on surface tension tests conducted with a tensiometer (Cenco-DuNoug Precision Model #70535, direct reading model) to determine the upward surface tension at the liquid-air surface of the test ester/water solution. The methods used to calibrate the tensiometer, calculate the "correction factor" (used to correct for the difference between the apparent and true surface tension), and collect data, were conducted as described in the manual for the instrument. Sodium lauryl sulfate (SLS) and distilled water were used as reference samples.
On completing data collection, plots of the surface tension (dynes) versus -log of the concentration (mols/liter) were prepared, using only the "corrected" surface tension value, obtained by applying the noted "correction factor" in each case. The […] was found by multiplying the "apparent" surface tension by a calculated correction factor.
The critical micelle concentration (cmc) for each sample was determined by locating the point in the curve where the surface tension first begins to level off, per a known procedure.

[5] = system: Staphylococcus species a; test: Preservative challenge test against Staphylococcus species a; type: cell-based; conditions: end of 14 day period
Procedure: as §1, §2, §3, §4, §5

[6] = Physical properties of methylolated MHEDMH esters (I): viscosity; type: physicochemical; conditions: at 25° C.
[7] = calcium carbonate aqueous dispersions
[8] = among esters (I) examined, Table 6

| ability to stabilize emulsions [1] | duration of stabilized emulsions [1] | cmc, relative rank [4, 8] | ΔG°cmc, relative rank [4, 8] | ΔG°cmc (Gibbs' Free Energy of Micellation) ([4]; calculated from cmc by Eq. 1, T=298° K.) [kcal/mol] | cmc (critical micelle concentration) ([4]; ester/water solution) | Viscosity [6] [cts] | Structure (SMILES) | emulsion quality, decreasing order of rank [1] | Colony Count ([2]; Day 0) | Colony Count ([2]; Day 1) | Colony Count ([2]; Day 2) | Colony Count ([2]; Day 3) | Colony Count ([2]; Day 7) | effectiveness as preservative ([3]; water) | surface active properties [4] | effectiveness as preservative ([5]; water) | effectiveness as preservative [3, 7] | effectiveness as preservative [5, 7] |
| --- | --- | --- | --- | --- | --- | --- | --- | --- | --- | --- | --- | --- | --- | --- | --- | --- | --- | --- |
| the best emulsifiers tested | more than 22 days |  |  |  |  |  | CCCCCCCCCCCC(=O)OCCN1C(=O)N(CO)C(=O)C1(C)C [Methylolated Lauric Ester, 2-(3-hydroxymethyl-5,5-dimethyl-1,3-diazacyclopentane-2,4-dion-1-yl)-ethylester of lauric acid] | cocoate, laurate>oleate,isostearate>stearate>C8/10 ester>acetate | TNC | TNC | < 0.01 × 1,000 | < 0.01 × 1,000 | < 0.01 × 1,000 | effective as preservatives in water | particularly favorable surface active properties | effective as preservatives in water |  |  |
|  |  | the lowest cmc values | the lowest ΔG°cmc values | -6.962 | 4.0 × 10^-4 mol dm^-3 | 501 | CCCCCCCC/C=C\CCCCCCCC(=O)OCCN1C(=O)N(CO)C(=O)C1(C)C [Methylolated Oleic Ester, 2-(3-hydroxymethyl-5,5-dimethyl-1,3-diazacyclopentane-2,4-dion-1-yl)-ethylester of oleic acid] | cocoate, laurate>oleate,isostearate>stearate>C8/10 ester>acetate | 4,000 × 1,000 | < 0.01 × 1,000 | < 0.01 × 1,000 | < 0.01 × 1,000 | < 0.01 × 1,000 | effective as preservatives in water | particularly favorable surface active properties | effective as preservatives in water | effective as a preservative in calcium carbonate aqueous dispersions | effective as a preservative in calcium carbonate aqueous dispersions |
